Structures can show the parent of a compound that is named as a salt.
Key:
[1] = target: T1, lysozyme (Gallus gallus, UniProt P00698); test: Photochemical labeling of lysozyme with pyridinium salts (General Procedure B, LC/MS); assay type: biochemical, chicken; settings: lysozyme labeling
T1 construct: Lysozyme (from chicken egg white, >40,000 units/mg of protein); purchased Sigma Aldrich; host or cells: chicken egg white
Method: General Procedure B: Photochemical Irradiation of Peptides and Proteins: To a 2 mL Pyrex LC/MS vial (Thermo model #03-391-39) were sequentially added solutions containing the desired biomolecule, glutathione (GSH), pyridinium salt, and ammonium acetate (NH4OAc). The resulting solution was diluted to a final volume of 500 μL and then sparged using nitrogen for a minimum of 30 minutes prior to irradiation. The actively sparging solution was then placed in an EvoluChem™ PhotoRedOx Box photoreactor that was equipped with a Kessil, PR160 427 nm LED Lamp and was then irradiated (100% lamp intensity) for the designated time at room temperature while maintaining active sparging. The resultant reaction mixture was then analyzed directly by LC/MS. Analysis of labeling outcomes using LC/MS was performed either by extracted ion chromatogram intensities (method A) or by integrating the area under the peaks associated with peptide content (method B). These values were totaled, and estimated percentages were assigned according to relative intensities of peaks or ion counts.
Labeling of Lysozyme with Pyridinium Salt 2a (Lysozyme-2a Conjugate). Labeling of lysozyme (14.3 kDa) with the pyridinium salt 2a was performed by following general procedure B using the following solutions: lysozyme (27 μL, 182 μM, 10 μM final concentration), pyridinium salt 2a (200 μL, 500 μM, 200 μM final concentration), NH4OAc (100 μL, 100 mM, pH=6.9, 20 mM final concentration), glutathione (15 μL, 10 mM, 300 μM final concentration), and water (158 μL) with a 100% intensity irradiation time of 60 minutes. The reaction mixture was analyzed directly by LC/MS using method A and was estimated to have proceeded in >95% conversion and a 10.9:1 mono:di labeled ratio and 10% glutathionylation of all unlabeled and labeled protein content was observed.
Labeling of Lysozyme with Pyridinium Salt 2b (Lysozyme-2b Conjugate). Labeling of lysozyme (14.3 kDa) with the pyridinium salt 2b was performed by following general procedure Busing the following solutions: lysozyme (19 μL, 262 μM, […]), 2b (181 μL, 554 μM, 200 μM final concentration), NH4OAc (50 μL, 200 mM, pH=6.9, 20 mM final concentration), glutathione (50 μL, 3 mM, 300 μM final concentration), and water (200 μL) with a 100% intensity irradiation time of 10 minutes. The reaction mixture was analyzed directly by LC/MS using method A and was estimated to have proceeded with 83% conversion. […]
Labeling of Lysozyme with Pyridinium Salt 2c (Lysozyme-2c Conjugate). […] The reaction mixture was analyzed directly by LC/MS using method A and was estimated to have proceeded with 85% conversion and a 3.7:1 mono:di labeled ratio and 10% glutathionylation of all protein content was observed. […]

[2] = tested on: HEK293T cells; test: In-situ chemoproteomic tryptophan profiling of live HEK293T cells; assay type: cell-based, human
Method: Cell culture and in-situ tryptophan probe treatment: Cell lines were cultured at 37° C. with 5% CO2. Human embryonic kidney 293 cells expressing a mutant version of the SV40 large T antigen (HEKT293T cells) were grown in Dulbecco's Modified Eagle Medium (DMEM, Gibco) supplemented with 10% fetal bovine serum and 1% penicillin/streptomycin. For in-situ labeling, cells were grown to 90% confluence, washed with Dulbecco's phosphate buffered saline (DPBS), treated with 100× stocks of the tryptophan probes (the pyridinium salts) in OptiMem (GibCo) to generate final concentrations (0 μM, 1 μM, 10 μM, and 100 μM) in 1% dimethylsulfoxide (DMSO). Cells were incubated for 1 hour at 37° C. with 5% CO2 followed by photo-activation at the respective wavelengths for 20 minutes at 4° C. Cells were harvested with a cell scraper, washed 3× with DPBS, and pellets were stored at −80° C. until further use. The following light sources were used for photo-activation:
In-situ tryptophan probe sample processing for peptide-level characterization: Cell pellets were lysed via sonication (QSonica) at 50% amplitude, 2 seconds ON, 3 seconds OFF, 30 seconds in 40 mM HEPES pH 7.5 (4-(2-hydroxyethyl)-1-piperazineethanesulfonic acid), 1.5 mM magnesium chloride (MgCl2), 1% Sodium dodecyl sulfate (SDS), 0.8% NP-40 (also known as nonyl phenoxypolyethoxylethanol), and 1× protease inhibitors (Thermo). Protein concentration was determined by BCA (Pierce). 400 μg protein lysate were taken for copper-catalyzed azide-alkyne cycloaddition (CuAAC) reactions with 100 μM of the acid cleavable DAPBS Biotin Alkyne (Click Chemistry Tools), 250 μM copper sulfate (CuSO4), 500 μM BTTP (C20H34N10O2) (Click Chemistry Tools), and 2.5 mM ascorbate and incubated for 60 minutes at R.T. Samples were precipitated with methanol:chloroform and re-suspended in 50 mM HEPES pH 8.0 containing 1% RapiGest SF (Waters). The samples were reduced with 10 mM dithiothreitol (DTT) (Pierce) and alkylated with 25 mM iodoacetamide (Pierce). The samples were diluted down to 0.1% RapiGest SF and treated with 4 μg Trypsin/LysC (Promega) at 37° C. for 16 hours. The digested peptides were than labeled with isobaric tandem mass tag (TMT) reagents (Thermo) as specified by the manufacturer. The labeled peptides were then combined, concentrated to remove acetonitrile, and re-suspended in 50 mM HEPES pH 8.0 containing 0.2% SDS. […]
Quantitative proteomics by two-dimensional nano liquid chromatography-tandem mass spectrometry (nLC-MS/MS): For protein-level characterization, the TMT-labeled sample were reconstituted in 0.1% formic acid (FA)/2% acetonitrile for offline high-pH reversed phase separation (RP10) using a Dionex UltiMate 3000 high-performance liquid chromatography (HPLC) system with fraction collection using Chromeleon v.6.8 (Thermo) software. […]

T1 sequence (P00698 19-147): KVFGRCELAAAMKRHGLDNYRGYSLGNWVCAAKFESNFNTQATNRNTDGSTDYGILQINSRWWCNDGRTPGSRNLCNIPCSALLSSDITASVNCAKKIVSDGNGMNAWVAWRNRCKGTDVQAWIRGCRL

labeling rate compared to pyridinium salt 2a [1]: enhance rates
plasma membrane crossing / subcellular penetration ([2]; subcellular localization of modified proteins (UniProt)): readily crosses the plasma membrane
Compound: COc1ccc2cc(-c3cc(C)[n+](N(C)C(=O)OCCCCCCN=[N+]=[N-])c(C)c3)ccc2c1 [pyridinium salt 2d, 1-((((6-azidohexyl)oxy)carbonyl)(methyl)amino)-4-(6-methoxynaphthalen-2-yl)-2,6-dimethylpyridin-1-ium tetrafluoroborate]
Trp-modified peptide fragments detected showing dose response behavior ([2]; about 100 μM probe, 60 min 37° C., 440 nm 20 min 4° C., peptide-level enrichment): 290
selectivity for tryptophan ([2]; taking relative amino acid frequency in human proteins into account, FIG. 19B): about 82%
Western validation of NPM1 and PARP1 in enriched protein mixtures ([2]; varying concentrations, with and without blue light, protein-level enrichment): found to contain both proteins
